Results reported in patent US20230048170A1, “COMPOSITION INCLUDING CATIONIC POLYSACCHARIDE AND ANIONIC ANTIOXIDANT” (priority 2019, published 2023).

Experiment: Solubilisation of baicalin in alkaline water with or without polyquaternium-67
Assay type: physicochemical
Settings: pH 10
Procedure: In Examples 1-3, a polyquaternium-67 (PQ-67) was dissolved in water to prepare a PQ-67 aqueous solution. Then, the pH of the solution was adjusted to 10 by adding 1M NaOH aqueous solution. Next, baicalin was added to the alkaline solution as much as possible. In the compositions according to Examples 1-3, […] was able to be solubilized up to an amount of 0.1% by weight, 0.2% by weight and 0.25% by weight, respectively, relative to the total weight of the composition.
On the other hand, in the composition according to Comparative Example 1 including no PQ-67, the solubilized amount of […] was limited only to 0.025% by weight relative to the total weight of the composition.
Thus, by forming a complex by the electrostatic interaction, the solubility of baicalin increased up to 10 folds.

For `O=C(O)[C@H]1O[C@@H](Oc2cc3oc(-c4ccccc4)cc(=O)c3c(O)c2O)[C@H](O)[C@@H](O)[C@@H]1O` [baicalin], the “increase of solubility of baicalin by complex formation with PQ-67” value was “up to 10 folds”.
